Laboratory results taken from patent publication US6515122B1, “Tetracyclic benzimidazole derivatives and combinatorial libraries thereof” (Lion Bioscience AG, priority 1999, dated 2003).

Test system: Streptococcus pyogenes (ATCC# 97-03 14289)
Test: Anti-microbial screen (growth inhibition, OD 570 nm)
Type: cell-based
Details: ATCC97, compounds at 170 μg/ml, Todd Hewitt Broth, read at 4 hrs
Protocol: Streptococcus pyogenes (ATCC# 97-03 14289) were grown in Todd Hewitt Broth (THB) (Difco Laboratories #0492-17-6) overnight until they reached an optical density of (OD=0.636@ 570 nm) by reading 0.1 ml in a 96 well microtiter plate in a Molecular Devices Thermomax. This preparation was kept frozen as stocks in 30% v/v glycerol in 1.5 ml aliquots at −70 C° until used. Prior to screening, 1.5 ml aliquots were thawed and diluted into 50 ml THB. 200 μl of this dilution was added to 92 wells of microtiter plate. To three wells THB (200 μl) was added to serve as a blank and a sterility control. Test compounds in DMSO and appropriate concentrations of DMSO were added to Growth/Solvent Controls at 0 time. Plates were read at 0 time at 570 nm in the Molecular Devices plate reader to obtain compounds correction factors for insoluble or colored compounds. Plates were read again at 4 hrs.
Compounds were assayed at a concentration of 170 μg/ml. Percent inhibition for each compound was calculated using the following formulae:
Color correct=(O.D. 0 hr−Blank 0 hr)−(Solvent Control 0 hr−Blank 0 hr)
% Inhibition=100−(O.D. test compound 4 hr−Blank 4 hr−color correct) divided by (O.D. growth/solvent control 4 hr−Blank 4 hr)

Row | SMILES | inhibition at 170 µg/mL
1 | Cn1cnnc1Sc1ccc2c(c1)-c1nc3ccccc3n1C(CCCNC(=N)N)C(=O)N2 (stereo not drawn) [6000#60857] | 95.3%
2 | N=C(N)NCCCC1C(=O)Nc2ccc(N3CCSCC3)cc2-c2nc3ccccc3n21 (stereo not drawn) [6000#60875] | 101%
3 | CCN(CC)c1ccc2c(c1)-c1nc3ccccc3n1C(CCCNC(=N)N)C(=O)N2 (stereo not drawn) [6000#60879] | 97.4%
